Some results are limits rather than exact numbers.

This note sets out measurements from patent publication US10538495B2, “Modulators of indoleamine 2,3-dioxygenase” (GLAXOSMITHKLINE INTELLECTUAL PROPERTY DEVELOPMENT LIMITED, priority 2016, dated 2020).

The assay concerns the target indoleamine 2,3-dioxygenase (IDO1) (Homo sapiens, UniProt P14902). As to the kind of experiment: HeLa IDOi assay (kynurenine by mass spectrometry). Details: human epithelial HeLa cells (CCL-2; host or cells: HeLa cells stimulated with human IFN-γ. As to conditions: IFN-γ stimulated HeLa cells, 2 days, kynurenine detected by mass spectrometry; read-out: HeLa pIC50 (converted). It counts as cell-based. The method, then:
Brief descriptions of the cellular assays are provided following the table.
Compounds of the present invention were tested via high-throughput cellular assays utilizing detection of kynurenine via mass spectrometry and cytotoxicity as end-points. For the mass spectrometry and cytotoxicity assays, human epithelial HeLa cells (CCL-2; ATCC®, Manassas, Va.) were stimulated with human interferon-γ (IFN-γ) (Sigma-Aldrich Corporation, St. Louis, Mo.) to induce the expression of indoleamine 2,3-dioxygenase (IDO1). Compounds with IDO1 inhibitory properties decreased the amount of kynurenine produced by the cells via the tryptophan catabolic pathway. Cellular toxicity due to the effect of compound treatment was measured using CellTiter-Glo® reagent (CTG) (Promega Corporation, Madison, Wis.), which is based on luminescent detection of ATP, an indicator of metabolically active cells.
In preparation for the assays, test compounds were serially diluted 3-fold in DMSO from a typical top concentration of 5 mM and plated at 0.5 μL in 384-well, polystyrene, clear bottom, tissue culture treated plates with lids (Greiner Bio-One, Kremsmünster, Austria) to generate 11-point dose response curves. Low control wells (0% kynurenine or 100% cytotoxicity) contained either 0.5 μL of DMSO in the presence of unstimulated (−IFN-γ) HeLa cells for the mass spectrometry assay or 0.5 μL of DMSO in the absence of cells for the cytotoxicity assay, and high control wells (100% kynurenine or 0% cytotoxicity) contained 0.5 μL of DMSO in the presence of stimulated (+IFN-γ) HeLa cells for both the mass spectrometry and cytotoxicity assays.
Frozen stocks of HeLa cells were washed and recovered in DMEM high glucose medium with HEPES (Thermo Fisher Scientific, Inc., Waltham, Mass.) supplemented with 10% v/v certified fetal bovine serum (FBS) (Thermo Fisher Scientific, Inc., Waltham, Mass.), and 1× penicillin-streptomycin antibiotic solution (Thermo Fisher Scientific, Inc., Waltham, Mass.). The cells were diluted to 100,000 cells/mL in the supplemented DMEM medium. 50 μL of either the cell suspension, for the mass spectrometry assay, or medium alone, for the cytotoxicity assay, were added to the low control wells, on the previously prepared 384-well compound plates, resulting in 5,000 cells/well or 0 cells/well respectively. IFN-γ was added to the remaining cell suspension at a final concentration of 10 nM, and 50 μL of the stimulated cells were added to all remaining wells on the 384-well compound plates. The plates, with lids, were then placed in a 37° C., 5% CO2 humidified incubator for 2 days.
Following incubation, the 384-well plates were removed from the incubator and allowed to equilibrate to room temperature for 30 minutes. For the cytotoxicity assay, CellTiter-Glo® was prepared according to the manufacturer's instructions, and 10 μL were added to each plate well. After a twenty minute incubation at room temperature, luminescence was read on an EnVision® Multilabel Reader (PerkinElmer Inc., Waltham, Mass.). For the mass spectrometry assay, 10 μL of supernatant from each well of the compound-treated plates were added to 40 μL of acetonitrile, containing 10 μM of an internal standard for normalization, in 384-well, polypropylene, V-bottom plates (Greiner Bio-One, Kremsmünster, Austria) to extract the organic analytes. Following centrifugation at 2000 rpm for 10 minutes, 10 μL from each well of the acetonitrile extraction plates were added to 90 μL of sterile, distilled H2O in 384-well, polypropylene, V-bottom plates for analysis of kynurenine and the internal standard on the RapidFire 300 (Agilent Technologies, Santa Clara, Calif.) and 4000 QTRAP MS (SCIEX, Framingham, Mass.). MS data were integrated using Agilent Technologies' RapidFire Integrator software, and data were normalized for analysis as a ratio of kynurenine to the internal standard. […]

Chain of indoleamine 2,3-dioxygenase (IDO1) (P14902 whole entry): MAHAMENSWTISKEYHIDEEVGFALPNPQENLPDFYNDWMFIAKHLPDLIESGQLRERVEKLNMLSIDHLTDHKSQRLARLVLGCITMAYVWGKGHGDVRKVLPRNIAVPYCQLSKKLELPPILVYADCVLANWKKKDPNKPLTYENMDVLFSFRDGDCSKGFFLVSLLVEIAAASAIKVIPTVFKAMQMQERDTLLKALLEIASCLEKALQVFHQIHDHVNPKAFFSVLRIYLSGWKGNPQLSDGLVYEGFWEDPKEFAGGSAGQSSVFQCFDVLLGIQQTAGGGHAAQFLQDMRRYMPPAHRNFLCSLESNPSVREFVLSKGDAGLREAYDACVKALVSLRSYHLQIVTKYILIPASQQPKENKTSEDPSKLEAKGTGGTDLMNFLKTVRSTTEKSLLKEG

For `CC(C)(C)Sc1ccc(-c2ccccc2-c2nn[nH]n2)cc1NC(=O)Cc1ccncc1` [Example 6, N-(4-(tert-butylthio)-2′-(2H-tetrazol-5-yl)-[1,1′-biphenyl]-3-yl)-2-(pyridin-4-yl)acetamide], the IC50 is 6.31 µM.

Turning to `CC(C)(C)Sc1ccc(-c2ccccc2-c2nn[nH]n2)cc1NC(=O)CC1CCCCC1` [Example 18, N-(4-(tert-butylthio)-2′-(2H-tetrazol-5-yl)-[1,1′-biphenyl]-3-yl)-2-cyclohexylacetamide], the IC50 was 3.98 µM. The result for `CC(=O)OCn1nnnc1-c1ccccc1-c1ccc(SC(C)(C)C)c(NC(=O)Cc2ccc(C)cc2)c1` [Example 58, (5-(4′-(tert-butylthio)-3′-(2-(p-tolyl)acetamido)-[1,1′-biphenyl]-2-yl)-1H-tetrazol-1-yl)methyl Acetate] reads 0.0398 µM.

Regarding `CC(=O)N1CCC(CC(=O)Nc2cc(-c3ccccc3-c3nn[nH]n3)ccc2SC(C)(C)C)CC1` [Example 31, 2-(1-Acetylpiperidin-4-yl)-N-(4-(tert-butylthio)-2′-(2H-tetrazol-5-yl)-[1,1′-biphenyl]-3-yl)acetamide], the IC50 is more than 10 µM. As to `Cc1ccc(CC(=O)Nc2cc(-c3ccccc3-c3nnnn3COP(=O)(OC(C)(C)C)OC(C)(C)C)ccc2SC(C)(C)C)cc1` [Example 50, di-tert-butyl ((5-(4′-(tert-butylthio)-3′-(2-(p-tolyl)acetamido)-[1,1′-biphenyl]-2-yl)-1H-tetrazol-1-yl)methyl) phosphate], the IC50 was 0.126 µM. The result for `CC(C)(C)Sc1ccc(-c2ccccc2-c2nn[nH]n2)cc1NC(=O)CC1CCN(S(C)(=O)=O)CC1` [Example 32, N-(4-(tert-butylthio)-2′-(2H-tetrazol-5-yl)-[1,1′-biphenyl]-3-yl)-2-(1-(methylsulfonyl)piperidin-4-yl)acetamide] reads more than 10 µM.
